Test results taken from patent US20250002507A1, “7,8-DIHYDRO-5H-1,6-NAPHTHYRIDINE DERIVATIVES AS POSITIVE ALLOSTERIC MODULATORS OF THE MUSCARINIC ACETYLCHOLINE RECEPTOR M4 FOR TREATING NEUROLOGICAL AND PSYCHIATRIC DISORDERS” (Vanderbilt University, priority 2021, published 2025).
pEC50: −log10 of the molar value.

Target: T1, Human M4 (Homo sapiens, UniProt P08173)
T1 construct: expressed in transfected cells
T1 sequence (P08173 1-479): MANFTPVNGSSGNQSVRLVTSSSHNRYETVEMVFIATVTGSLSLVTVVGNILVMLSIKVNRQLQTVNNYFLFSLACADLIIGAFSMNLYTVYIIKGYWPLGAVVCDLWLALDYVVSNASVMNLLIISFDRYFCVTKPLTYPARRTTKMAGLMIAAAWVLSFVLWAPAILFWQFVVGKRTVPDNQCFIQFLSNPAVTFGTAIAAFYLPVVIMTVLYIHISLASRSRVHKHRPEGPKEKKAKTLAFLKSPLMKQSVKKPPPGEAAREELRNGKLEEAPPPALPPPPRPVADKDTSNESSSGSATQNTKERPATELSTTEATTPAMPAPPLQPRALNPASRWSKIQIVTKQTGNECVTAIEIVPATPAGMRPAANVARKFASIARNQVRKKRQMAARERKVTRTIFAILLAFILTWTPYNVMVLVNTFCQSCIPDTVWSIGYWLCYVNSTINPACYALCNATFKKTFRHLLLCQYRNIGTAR
Assay: mAChR M4 cell-based functional assay (calcium flux, potentiation of EC20 acetylcholine response), hM4-Gqi5 CHO-K1 cells
Settings: for Emax at 30 µM: CHO-K1, % ACh maximum at 30 μM, human M4, read-out: Emax; for pEC50: hM4-Gqi5 CHO-K1 cells, calcium flux, PAM of EC20 acetylcholine, read-out: Human M4 EC50
Procedure, shortened: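 CHO-K1 cells stably expressing human M4 with chimeric Gqi5, loaded with Fluo-4 AM 50 min at 37 °C; calcium flux read by FDSS. 11-point 1:3 compound curves added, then EC20 acetylcholine at 144 s; potentiation of the EC20 response fitted by four-parameter logistic to give EC50 and Emax.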

SMILES | Emax at 30 µM | pEC50
Cc1c(N2CCc3ncc(Nc4ncccc4F)cc3C2)nn2cnnc2c1C [Compound 80, 6-(7,8-dimethyl-[1,2,4]triazolo[4,3-b]pyridazin-6-yl)-N-(3-fluoro-2-pyridyl)-7,8-dihydro-5H-1,6-naphthyridin-3-amine] | 72% | 6.75
Cc1ccc(Nc2cnc3c(c2)CN(c2nn4cnnc4c(C)c2C)CC3)c(F)n1 [Compound 81, 6-(7,8-dimethyl-[1,2,4]triazolo[4,3-b]pyridazin-6-yl)-N-(2-fluoro-6-methyl-3-pyridyl)-7,8-dihydro-5H-1,6-naphthyridin-3-amine] | 94% | 6.77
Cc1c(N2CCc3ncc(Nc4cccnc4F)cc3C2)nn2cnnc2c1C [Compound 82, 6-(7,8-dimethyl-[1,2,4]triazolo[4,3-b]pyridazin-6-yl)-N-(2-fluoro-3-pyridyl)-7,8-dihydro-5H-1,6-naphthyridin-3-amine] | 99% | 6.92
Cc1c(N2CCc3ncc(Nc4ccccc4F)cc3C2)nn2c(C)nnc2c1C [Compound 83, N-(2-fluorophenyl)-6-(3,7,8-trimethyl-[1,2,4]triazolo[4,3-b]pyridazin-6-yl)-7,8-dihydro-5H-1,6-naphthyridin-3-amine] | 99% | 6.44
Cc1c(N2CCc3ncc(Nc4cc(F)ccc4F)cc3C2)nn2c(C)nnc2c1C [Compound 84, N-(2,5-difluorophenyl)-6-(3,7,8-trimethyl-[1,2,4]triazolo[4,3-b]pyridazin-6-yl)-7,8-dihydro-5H-1,6-naphthyridin-3-amine] | 99% | 6.68
Cc1c(N2CCc3ncc(Nc4cc(F)cc(F)c4F)cc3C2)nn2c(C)nnc2c1C [Compound 85, N-(2,3,5-trifluorophenyl)-6-(3,7,8-trimethyl-[1,2,4]triazolo[4,3-b]pyridazin-6-yl)-7,8-dihydro-5H-1,6-naphthyridin-3-amine] | 92% | 6.45
Cc1noc(C)c1-c1cnc2c(c1)CN(c1nn3c(C)nnc3c(C)c1C)CC2 [Compound 86, 3,5-dimethyl-4-[6-(3,7,8-trimethyl-[1,2,4]triazolo[4,3-b]pyridazin-6-yl)-7,8-dihydro-5H-1,6-naphthyridin-3-yl]isoxazole] | 84% | 6.64
Cc1nn(C)c(C)c1-c1cnc2c(c1)CN(c1nn3c(C)nnc3c(C)c1C)CC2 [Compound 87, 3-(1,3,5-trimethylpyrazol-4-yl)-6-(3,7,8-trimethyl-[1,2,4]triazolo[4,3-b]pyridazin-6-yl)-7,8-dihydro-5H-1,6-naphthyridine] | 89% | 6.73
Cc1nn(C)cc1-c1cnc2c(c1)CN(c1nn3c(C)nnc3c(C)c1C)CC2 [Compound 88, 3-(1,3-dimethylpyrazol-4-yl)-6-(3,7,8-trimethyl-[1,2,4]triazolo[4,3-b]pyridazin-6-yl)-7,8-dihydro-5H-1,6-naphthyridine] | 97% | 6.71
Cc1c(N2CCc3ncc(-c4cnn(CC5CC5)c4)cc3C2)nn2c(C)nnc2c1C [Compound 89, 3-[1-(cyclopropylmethyl)pyrazol-4-yl]-6-(3,7,8-trimethyl-[1,2,4]triazolo[4,3-b]pyridazin-6-yl)-7,8-dihydro-5H-1,6-naphthyridine] | 91% | 6.54
Cc1c(N2CCc3ncc(-c4cncs4)cc3C2)nn2c(C)nnc2c1C [Compound 90, 5-[6-(3,7,8-trimethyl-[1,2,4]triazolo[4,3-b]pyridazin-6-yl)-7,8-dihydro-5H-1,6-naphthyridin-3-yl]thiazole] | 101% | 6.57
Cc1c(N2CCc3ncc(Nc4cc(F)cc(F)c4F)cc3C2)nn2c(C(F)(F)F)nnc2c1C [Compound 91, 6-[7,8-dimethyl-3-(trifluoromethyl)-[1,2,4]triazolo[4,3-b]pyridazin-6-yl]-N-(2,3,5-trifluorophenyl)-7,8-dihydro-5H-1,6-naphthyridin-3-amine] | 106% | 5.75
Cc1noc(C)c1-c1cnc2c(c1)CN(c1nn3c(C(F)(F)F)nnc3c(C)c1C)CC2 [Compound 92, 4-[6-[7,8-dimethyl-3-(trifluoromethyl)-[1,2,4]triazolo[4,3-b]pyridazin-6-yl]-7,8-dihydro-5H-1,6-naphthyridin-3-yl]-3,5-dimethyl-isoxazole] | 79% | 6.70
Cc1nn(C)c(C)c1-c1cnc2c(c1)CN(c1nn3c(C(F)(F)F)nnc3c(C)c1C)CC2 [Compound 93, 6-[7,8-dimethyl-3-(trifluoromethyl)-[1,2,4]triazolo[4,3-b]pyridazin-6-yl]-3-(1,3,5-trimethylpyrazol-4-yl)-7,8-dihydro-5H-1,6-naphthyridine] | 93% | 6.76
Cc1nn(C)cc1-c1cnc2c(c1)CN(c1nn3c(C(F)(F)F)nnc3c(C)c1C)CC2 [Compound 94, 3-(1,3-dimethylpyrazol-4-yl)-6-[7,8-dimethyl-3-(trifluoromethyl)-[1,2,4]triazolo[4,3-b]pyridazin-6-yl]-7,8-dihydro-5H-1,6-naphthyridine] | 100% | 6.76
Cc1c(N2CCc3ncc(-c4cnn(CC5CC5)c4)cc3C2)nn2c(C(F)(F)F)nnc2c1C [Compound 95, 3-[1-(cyclopropylmethyl)pyrazol-4-yl]-6-[7,8-dimethyl-3-(trifluoromethyl)-[1,2,4]triazolo[4,3-b]pyridazin-6-yl]-7,8-dihydro-5H-1,6-naphthyridine] | 90% | 6.30
Cc1c(N2CCc3ncc(-c4cncs4)cc3C2)nn2c(C(F)(F)F)nnc2c1C [Compound 96, 5-[6-[7,8-dimethyl-3-(trifluoromethyl)-[1,2,4]triazolo[4,3-b]pyridazin-6-yl]-7,8-dihydro-5H-1,6-naphthyridin-3-yl]thiazole] | 97% | 6.97
Cc1c(N2CCc3ncc(-c4cnn(C5CCCC5)c4)cc3C2)nn2cnnc2c1C [Compound 97, 3-(1-cyclopentylpyrazol-4-yl)-6-(7,8-dimethyl-[1,2,4]triazolo[4,3-b]pyridazin-6-yl)-7,8-dihydro-5H-1,6-naphthyridine] | 87% | 6.70
Cc1c(N2CCc3ncc(-c4cnn(CC(F)(F)F)c4)cc3C2)nn2cnnc2c1C [Compound 98, 6-(7,8-dimethyl-[1,2,4]triazolo[4,3-b]pyridazin-6-yl)-3-[1-(2,2,2-trifluoroethyl)pyrazol-4-yl]-7,8-dihydro-5H-1,6-naphthyridine] | 102% | 6.48
Cc1c(N2CCc3ncc(-c4cnn(C5CCC5)c4)cc3C2)nn2cnnc2c1C [Compound 99, 3-(1-cyclobutylpyrazol-4-yl)-6-(7,8-dimethyl-[1,2,4]triazolo[4,3-b]pyridazin-6-yl)-7,8-dihydro-5H-1,6-naphthyridine] | 95% | 6.56
CCn1cc(-c2cnc3c(c2)CN(c2nn4cnnc4c(C)c2C)CC3)cn1 [Compound 100, 6-(7,8-dimethyl-[1,2,4]triazolo[4,3-b]pyridazin-6-yl)-3-(1-ethylpyrazol-4-yl)-7,8-dihydro-5H-1,6-naphthyridine] | 101% | 6.60
Cc1c(N2CCc3ncc(-c4cc[nH]c4)cc3C2)nn2cnnc2c1C [Compound 101, 6-(7,8-dimethyl-[1,2,4]triazolo[4,3-b]pyridazin-6-yl)-3-(1H-pyrrol-3-yl)-7,8-dihydro-5H-1,6-naphthyridine] | 98% | 6.41
